Laboratory results taken from patent US10227373B2 (priority 2014, dated 2019).
“And” between values parts separate entries of the source, which are not always exact repeats. Equal values may be shown once. Read-outs that look alike come from different tables or passages of the source. Marks after values point to notes of the source that are not given here.

Key:
[1] = target: S-adenosylhomocysteine hydrolase (SAHase) (Oryctolagus cuniculus, UniProt A0A5F9DS62); assay: SAHase inhibition (release of free homocysteine); assay type: biochemical; conditions: SAHase from rabbit erythrocytes; read-out: IC50 versus SAHase
Dengue [2] = test system: Dengue
HBV = assay: microbe, parasite or virus in culture; assay type: cell-based, hepatitis B virus
Vaccinia [3] = assay: microbe, parasite or virus in culture; assay type: cell-based, vaccinia virus
HCMV = assay: microbe, parasite or virus in culture; assay type: cell-based, human cytomegalovirus; conditions: Human betaherpesvirus 5, HFF
NOV = assay: microbe, parasite or virus in culture; assay type: cell-based; conditions: Norovirus, HG23
Dengue [4] = assay: microbe, parasite or virus in culture; assay type: cell-based
Measles = assay: microbe, parasite or virus in culture; assay type: cell-based; conditions: Measles morbillivirus, Vero 76
Ebola (Zaire) = assay: microbe, parasite or virus in culture; assay type: cell-based; conditions: Zaire ebolavirus, Vero
in vitro [5] = conditions: human
in vitro [6] = conditions: human; remark: listed apart in the source
in vitro [7] = conditions: African green monkey
Ebola virus [8] = test system: Ebola virus
in vitro [9] = conditions: human; remark: listed apart in the source
Ebola virus [10] = assay: microbe, parasite or virus in culture; conditions: Zaire ebolavirus, read-out: EC50 (IC50)
Vaccinia [11] = test system: Vaccinia
measles virus = assay: microbe, parasite or virus in culture; assay type: cell-based; conditions: Measles morbillivirus, Vero 76, read-out: drug concentration to reduce viral replication (EC50)
in vitro [12] = conditions: human; remark: listed apart in the source

Sequence of S-adenosylhomocysteine hydrolase (SAHase) (A0A5F9DS62 1-428): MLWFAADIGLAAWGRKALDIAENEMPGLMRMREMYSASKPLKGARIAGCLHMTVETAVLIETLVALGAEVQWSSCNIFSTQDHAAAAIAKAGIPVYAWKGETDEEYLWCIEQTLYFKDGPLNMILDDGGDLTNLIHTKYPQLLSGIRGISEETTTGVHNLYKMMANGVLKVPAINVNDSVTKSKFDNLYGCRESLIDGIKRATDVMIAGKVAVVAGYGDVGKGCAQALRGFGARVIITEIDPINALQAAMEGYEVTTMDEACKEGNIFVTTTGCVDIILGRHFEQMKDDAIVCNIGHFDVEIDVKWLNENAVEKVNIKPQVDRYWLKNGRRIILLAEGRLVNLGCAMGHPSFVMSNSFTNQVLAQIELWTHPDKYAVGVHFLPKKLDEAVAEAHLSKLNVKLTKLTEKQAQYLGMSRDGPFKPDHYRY

**Q.** For Nc1ncc(Br)c2c1ncn2[C@@H]1C=C(CO)[C@@H](O)[C@H]1O [3-Bromo-3-deazaneplanocin], which IC50 [1] is on record?
**A.** Its IC50 is 0.0027 µM.

**Q.** What about the “MCC (minimum concentration causing microscopically detectable alteration of normal cell morphology)” value (Vero cells) of the same molecule?
**A.** The value was >100^d.

**Q.** And the CC50/EC50 (Marburg)?
**A.** Its CC50/EC50 is 1100.

**Q.** And the EC50 (Marburg)?
**A.** The EC50 was 0.009 µM.

**Q.** And the CC50/EC50 (Ebola)?
**A.** Its CC50/EC50 is 3.

**Q.** And the EC50 (Ebola)?
**A.** Its EC50 is 3.3 µM.

**Q.** What about the “SI (CC50/EC50)” value (Rift Valley Fever) of the same molecule?
**A.** Its value is 250.

**Q.** And the “SI (CC50/EC50)” value (Punta Toro)?
**A.** Its value is 140.

**Q.** What about the “SI (CC50/EC50)” value (Tacaribe) of the same molecule?
**A.** Its value is >2000.

**Q.** What about the “SI (CC50/EC50)” value (Pichinde) of the same molecule?
**A.** The value was 24.

**Q.** And the “SI (CC50/EC50)” value (Junin)?
**A.** Its value is 160.

**Q.** And the “SI (CC50/EC50)” value (Dengue [2])?
**A.** Its value is 57.

**Q.** And the “SI (CC50/EC50)” value (Epstein Barr)?
**A.** Its value is <4.3.

**Q.** And the “SI (CC50/EC50)” value (Feline herpes)?
**A.** The value was 470.

**Q.** And the EC50 (Flu A (H1N1))?
**A.** Its EC50 is < 0.094 µM.

**Q.** And the “SI (CC50/EC50)” value (Flu A (H1N1))?
**A.** Its value is >2345.

**Q.** And the EC50 (Flu A (H3N2))?
**A.** The EC50 was 1.55 µM.

**Q.** What about the “SI (CC50/EC50)” value (Flu A (H3N2)) of the same molecule?
**A.** Its value is >190.

**Q.** And the EC50 (Flu A (H5N1))?
**A.** The EC50 was 0.94 µM.

**Q.** And the “SI (CC50/EC50)” value (Flu A (H5N1))?
**A.** The value was >310.

**Q.** What about the EC50 (Influenza B) of the same molecule?
**A.** Its EC50 is > 0.16 µM.

**Q.** And the “SI (CC50/EC50)” value (Influenza B)?
**A.** Its value is <7.

**Q.** And the CC50 (Akata cells)?
**A.** The CC50 was 0.13^b.

**Q.** And the CC50 (CRFK cells)?
**A.** Its CC50 is 94^b.

**Q.** Which Antiviral activity (HBV) does the source give for Nc1ncnc2c1ncn2C1=C[C@@H](CO)[C@H](O)[C@@H]1O [“L”-Isoneplanocin, (1S,2R,5S)-3-(6-Amino-9H-purin-9-yl)-5-(hydroxymethyl)cyclopent-3-ene-1,2-diol] here?
**A.** Its Antiviral activity is “inactive”.

**Q.** And the Antiviral activity (Vaccinia [3])?
**A.** The Antiviral activity was “inactive”.

**Q.** And the EC50 (HCMV)?
**A.** Its EC50 is 3.7 µM.

**Q.** And the EC90 (HCMV)?
**A.** The EC90 was 6.86 µM.

**Q.** And the EC50 (NOV)?
**A.** The EC50 was 11 µM.

**Q.** What about the EC90 (NOV) of the same molecule?
**A.** The EC90 was 89 µM.

**Q.** What about the EC50 (Dengue [4]) of the same molecule?
**A.** The EC50 was 5.7 µM.

**Q.** What about the EC50 (Dengue [4]; Dengue virus, Vero 76) of the same molecule?
**A.** Its EC50 is 6.1 µM.

**Q.** And the EC50 (Measles)?
**A.** Its EC50 is 0.72 µM.

**Q.** And the EC50 (Ebola (Zaire))?
**A.** Its EC50 is 0.76 µM.

**Q.** And the CC50 (in vitro [5])?
**A.** The CC50 was > 300 µM.

**Q.** And the CC50 (in vitro [6])?
**A.** Its CC50 is > 300 µM.

**Q.** What about the CC50 (in vitro [7]) of the same molecule?
**A.** Its CC50 is 11.4 µM.

**Q.** With Nc1nccc2c1ncn2[C@@H]1C[C@@H](CO)[C@H](O)[C@@H]1O [carbocyclic 3-deazaadenosine, reference compound] as the molecule, how does the “EC90 (IC90; concentration inhibiting viral replication by 90%)” value (Ebola virus [8]) read?
**A.** The value was > 126.5 µM and 240.3 µM.

**Q.** Which CC50/EC50 (Ebola virus [8]) does the source give for Nc1nccc2c1ncn2C1=C[C@@H](CO)[C@H](O)[C@@H]1O [“L”-3-Deazaisoneplanocin, L-1′,6′-iso-3-deazaneplanocin] here?
**A.** Its CC50/EC50 is >313 µM.

**Q.** And the “EC90 (IC90; concentration inhibiting viral replication by 90%)” value (Ebola virus [8])?
**A.** Its value is < 0.32 µM.

**Q.** What about the CC50 (in vitro [9]) of the same molecule?
**A.** The CC50 was > 100 µM.

**Q.** And the EC50 (Ebola virus [10])?
**A.** Its EC50 is < 0.32 µM.

**Q.** With Nc1ncc(Br)c2c1ncn2[C@@H]1C[C@H](CO)[C@@H](O)[C@H]1O [3-Bromo-3-deazaaristeromycin] as the molecule, how does the “SI (CC50/EC50)” value (Rift Valley Fever) read?
**A.** Its value is 5.

**Q.** And the “SI (CC50/EC50)” value (Tacaribe)?
**A.** Its value is 7.9.

**Q.** And the “SI (CC50/EC50)” value (Dengue [2])?
**A.** Its value is 2.

**Q.** And the “SI (CC50/EC50)” value (Vaccinia [11])?
**A.** Its value is >1.3.

**Q.** And the EC50 (Flu A (H1N1))?
**A.** Its EC50 is > 290 µM.

**Q.** And the “SI (CC50/EC50)” value (Flu A (H1N1))?
**A.** The value was 0.

**Q.** And the EC50 (Flu A (H3N2))?
**A.** The EC50 was > 290 µM.

**Q.** And the “SI (CC50/EC50)” value (Flu A (H3N2))?
**A.** The value was 0.

**Q.** And the EC50 (Flu A (H5N1))?
**A.** The EC50 was 1.14 µM.

**Q.** What about the “SI (CC50/EC50)” value (Flu A (H5N1)) of the same molecule?
**A.** The value was >260.

**Q.** And the EC50 (Influenza B)?
**A.** Its EC50 is 0.84 µM.

**Q.** What about the “SI (CC50/EC50)” value (Influenza B) of the same molecule?
**A.** The value was >340.

**Q.** What about the CC50 (MDCK cells) of the same molecule?
**A.** The CC50 was > 290 µM.

**Q.** For Nc1nccc2c1ncn2C1=C[C@H](CO)[C@@H](O)[C@H]1O [“D”-3-Deazaisoneplanocin, D-1′,6′-iso-3-deazaneplanocin], which EC50 (measles virus) is on record?
**A.** Its EC50 is < 0.1 µg/mL.

**Q.** What about the CC50/EC50 (Ebola virus [8]) of the same molecule?
**A.** The CC50/EC50 was >313 µM.

**Q.** And the “EC90 (IC90; concentration inhibiting viral replication by 90%)” value (Ebola virus [8])?
**A.** Its value is 74.1 µM.

**Q.** What about the CC50 (in vitro [9]) of the same molecule?
**A.** The CC50 was > 100 µM.

**Q.** What about the EC50 (Ebola virus [10]) of the same molecule?
**A.** The EC50 was < 0.32 µM.

**Q.** With Nc1ncnc2c1ncn2C1=C[C@H](CO)[C@@H](O)[C@H]1O [“D”-Isoneplanocin, (1R,2S,5R)-3-(6-Amino-9H-purin-9-yl)-5-(hydroxymethyl)cyclopent-3-ene-1,2-diol] as the molecule, how does the EC50 (HBV; Hepatitis B virus) read?
**A.** Its EC50 is 7.2 µM.

**Q.** And the EC90 (HBV; Hepatitis B virus)?
**A.** Its EC90 is 35 µM.

**Q.** And the EC50 (Vaccinia [3]; Orthopoxvirus vaccinia, HFF)?
**A.** Its EC50 is 10.1 µM.

**Q.** And the EC90 (Vaccinia [3]; Orthopoxvirus vaccinia, HFF)?
**A.** Its EC90 is > 300 µM.

**Q.** What about the EC50 (HCMV) of the same molecule?
**A.** Its EC50 is 0.11 µM.

**Q.** What about the EC90 (HCMV) of the same molecule?
**A.** Its EC90 is > 12 µM.

**Q.** What about the EC50 (NOV) of the same molecule?
**A.** The EC50 was 0.784 µM.

**Q.** What about the EC90 (NOV) of the same molecule?
**A.** Its EC90 is 8.88 µM.

**Q.** What about the EC50 (Dengue [4]) of the same molecule?
**A.** The EC50 was 1.5 µM.

**Q.** And the EC50 (Dengue [4]; Dengue virus, Vero 76)?
**A.** Its EC50 is 1.1 µM.

**Q.** And the EC50 (Measles)?
**A.** The EC50 was < 0.38 µM.

**Q.** What about the EC50 (Ebola (Zaire)) of the same molecule?
**A.** Its EC50 is 0.38 µM.

**Q.** What about the CC50 (in vitro [12]) of the same molecule?
**A.** The CC50 was > 100 µM.

**Q.** And the CC50 (in vitro [6])?
**A.** The CC50 was > 100 µM.

**Q.** What about the CC50 (in vitro [7]) of the same molecule?
**A.** Its CC50 is 1.3 µM.
